Measurements reported in patent US20230255934A1, “NURR1 RECEPTOR MODULATORS AND USES THEREOF” (The Regents of the University of California, priority 2020, published 2023).

How the values were obtained:
[1] = target: T1, full-length Nurr1 (NBRE response element) (Mus musculus, UniProt Q06219); experiment: Full-length Nurr1 NBRE luciferase reporter assay in MN9D cells; assay type: cell-based; details: 6 h treatment
T1 construct: a cell line derived from dopaminergic neurons which endogenously expresses full length Nurr1 and its target genes; endogenous in cells; host or cells: MN9D TET-ON cells
Procedure: Luciferase Reporter Assays. These assays were executed using standard protocols. MN9D TET-ON cells (P5) were grown for 60-72 h (see above) before being seeded at 1-10^5 cell/well in 24-well plate in DMEM/F12+5% TET-ON approved FBS 3 h before transfection. Cells were transfected using Lipofectamine 2000 (Invitrogen) and plasmid DNAs according to manufacturer's instructions. Lipofectamine/DNA complexes were prepared in Opti-Mem medium (Gibco) and incubated with cells overnight. The Nurr1-LBD_Gal4-DBD expressing plasmid was prepared by subcloning the Nurr1 LBD fragment into […] plasmid (Clontech) containing GAL4 DBD. The reporter plasmid pGL4.35 (luc2P/9XGAL4 UAS/Hygro) Vector (Promega) contains nine repeats of GAL4 UAS (Upstream Activator Sequence) and drives transcription of the luciferase reporter gene luc2P in response to binding of Nurr-LBD_Gal4-DBD chimeric protein. The pRL-null (Promega) plasmid expressing renilla luciferase was used as an internal control. […] Alternatively, cells were co-transfected with the reporter plasmid NBREx3-POMC-Luc containing three copies of the NBRE sequence ([NT] ID NO:23)) subcloned into the pXP1-luc plasmid containing the minimal (positions -34 to +63) POMC promoter as described previously^7, and the pRL-null plasmid. […] Transfected cells were treated with increasing concentrations of 5-chloroindole or vehicle only for 6 h, after which time the media was aspirated and luciferase activity was measured. Cells from each well were incubated for 15 min with 220 μL/well of Dual-Glo® Luciferase Reagent (Promega) at room temperature upon rotation on the orbital shaker. […] Resulting solutions were transferred to a white opaque 96-well plate (65 μL/well; 3 wells/sample) and firefly luciferase activity was measured using Veritas Microplate Luminometer (Turner BioSystems, Sunnyvale, Calif.). […] Renilla luciferase activity was measured after 20 min of incubation of the plate inside the luminometer. Experimental values are expressed as the average of firefly/renilla luciferase activity±standard deviation (for three independent biological replicates). […]

th and vmat2 expression = details: zebrafish; cited from earlier work
[2] = target: Nurr1 ligand binding domain (LBD) (Homo sapiens, UniProt P43354); details: non-canonical ligand binding pocket, Cys566; cited from earlier work
Sequence of Nurr1 ligand binding domain (LBD) (P43354 360-595 limits assumed): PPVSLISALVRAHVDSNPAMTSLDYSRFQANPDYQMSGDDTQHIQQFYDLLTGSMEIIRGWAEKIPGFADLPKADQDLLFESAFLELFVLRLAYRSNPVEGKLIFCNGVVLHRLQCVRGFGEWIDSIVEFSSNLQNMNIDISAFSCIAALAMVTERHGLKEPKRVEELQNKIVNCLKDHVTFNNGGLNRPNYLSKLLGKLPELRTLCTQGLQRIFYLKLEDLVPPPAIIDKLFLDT

T1 sequence (Q06219 whole entry): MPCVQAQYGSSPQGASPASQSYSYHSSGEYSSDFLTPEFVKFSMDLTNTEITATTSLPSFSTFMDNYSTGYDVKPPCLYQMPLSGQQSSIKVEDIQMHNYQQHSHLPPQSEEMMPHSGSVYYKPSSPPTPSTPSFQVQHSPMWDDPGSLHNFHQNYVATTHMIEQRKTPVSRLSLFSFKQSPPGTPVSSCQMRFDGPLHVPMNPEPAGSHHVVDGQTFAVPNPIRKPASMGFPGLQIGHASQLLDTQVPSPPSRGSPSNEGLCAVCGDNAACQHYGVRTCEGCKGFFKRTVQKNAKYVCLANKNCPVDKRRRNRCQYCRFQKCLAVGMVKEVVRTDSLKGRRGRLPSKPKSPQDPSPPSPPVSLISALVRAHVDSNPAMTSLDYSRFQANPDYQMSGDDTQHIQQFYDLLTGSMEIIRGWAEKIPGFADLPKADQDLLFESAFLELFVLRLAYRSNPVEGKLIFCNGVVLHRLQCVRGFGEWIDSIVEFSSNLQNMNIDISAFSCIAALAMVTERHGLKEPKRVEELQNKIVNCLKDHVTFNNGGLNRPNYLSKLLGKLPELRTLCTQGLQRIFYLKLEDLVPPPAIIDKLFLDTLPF

SMILES	Luciferase production, full-length Nurr1 NBRE reporter [1]	Expression of th and vmat2 (th and vmat2 expression)	Binding to the Nurr1 LBD (in words) [2]
CCN(CC)Cc1cc(Nc2ccnc3cc(Cl)ccc23)ccc1O [amodiaquine, reference compound]	perform as expected		
Oc1cc2cc[nH]c2cc1O [DHI, 5,6-dihydroxyindole]		stimulates the expression of th and vmat2	forming a reversible covalent adduct with the side chain of Cys566
N#Cc1ccc2[nH]ccc2c1 [5-cyanoindole, reference compound]	perform as expected		
